ChEMBL document CHEMBL5126609, “Design, Synthesis, and Pharmacological Evaluation of Benzimidazolo-thiazoles as Potent CXCR3 Antagonists with Therapeutic Potential in Autoimmune Diseases: Discovery of ACT-672125” (J Med Chem, 2022)
Values after ≈ are worked out from the molar mass of the structure shown.

How the values were obtained:
hERG (KCNH2) = hERG (KCNH2) (Homo sapiens, UniProt Q12809); assay: Inhibition of hERG expressed in CHO cells at 3 uM at -80 mV holding potential assessed as current block incubated for 3 mins by Qpatch clamp method relative to control
Sequence of hERG (KCNH2) (Q12809 whole entry): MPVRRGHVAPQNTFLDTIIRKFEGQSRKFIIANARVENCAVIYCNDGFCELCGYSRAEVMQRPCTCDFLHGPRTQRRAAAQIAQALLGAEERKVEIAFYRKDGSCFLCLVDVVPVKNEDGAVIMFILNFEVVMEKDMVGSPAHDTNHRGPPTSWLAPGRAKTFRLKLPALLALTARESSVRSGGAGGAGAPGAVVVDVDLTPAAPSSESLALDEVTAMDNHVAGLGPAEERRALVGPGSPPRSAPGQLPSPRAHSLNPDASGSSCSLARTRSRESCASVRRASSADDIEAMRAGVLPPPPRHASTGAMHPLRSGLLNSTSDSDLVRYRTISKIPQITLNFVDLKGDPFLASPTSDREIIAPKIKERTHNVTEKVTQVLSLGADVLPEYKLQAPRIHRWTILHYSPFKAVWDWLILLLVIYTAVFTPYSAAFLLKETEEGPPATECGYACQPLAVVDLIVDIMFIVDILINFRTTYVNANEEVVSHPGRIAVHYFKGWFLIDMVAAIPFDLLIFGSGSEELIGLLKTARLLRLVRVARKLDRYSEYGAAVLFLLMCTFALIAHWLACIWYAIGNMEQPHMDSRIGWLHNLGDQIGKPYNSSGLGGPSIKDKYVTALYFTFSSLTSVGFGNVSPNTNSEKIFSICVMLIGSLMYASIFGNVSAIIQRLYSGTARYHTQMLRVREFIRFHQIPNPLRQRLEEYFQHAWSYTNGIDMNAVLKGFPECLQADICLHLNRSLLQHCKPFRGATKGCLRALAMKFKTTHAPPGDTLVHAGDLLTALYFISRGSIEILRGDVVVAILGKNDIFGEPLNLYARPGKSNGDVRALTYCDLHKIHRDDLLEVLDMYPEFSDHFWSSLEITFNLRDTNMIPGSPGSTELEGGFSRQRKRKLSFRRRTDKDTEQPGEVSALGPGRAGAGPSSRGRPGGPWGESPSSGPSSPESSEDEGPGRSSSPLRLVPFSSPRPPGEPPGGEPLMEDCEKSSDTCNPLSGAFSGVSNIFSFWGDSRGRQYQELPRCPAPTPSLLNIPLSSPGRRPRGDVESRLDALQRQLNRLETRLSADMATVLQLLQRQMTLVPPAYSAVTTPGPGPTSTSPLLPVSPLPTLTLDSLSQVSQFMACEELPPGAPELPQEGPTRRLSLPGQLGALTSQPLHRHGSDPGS

[1] = molecular target: T1, C-X-C chemokine receptor type 3 (Homo sapiens, UniProt P49682); assay: Antagonist activity at human recombinant CXCR3 expressed in CHO-K1 cells measured after 10 mins in presence of CXCL10 by FLIPR analysis
T1 sequence (P49682 whole entry): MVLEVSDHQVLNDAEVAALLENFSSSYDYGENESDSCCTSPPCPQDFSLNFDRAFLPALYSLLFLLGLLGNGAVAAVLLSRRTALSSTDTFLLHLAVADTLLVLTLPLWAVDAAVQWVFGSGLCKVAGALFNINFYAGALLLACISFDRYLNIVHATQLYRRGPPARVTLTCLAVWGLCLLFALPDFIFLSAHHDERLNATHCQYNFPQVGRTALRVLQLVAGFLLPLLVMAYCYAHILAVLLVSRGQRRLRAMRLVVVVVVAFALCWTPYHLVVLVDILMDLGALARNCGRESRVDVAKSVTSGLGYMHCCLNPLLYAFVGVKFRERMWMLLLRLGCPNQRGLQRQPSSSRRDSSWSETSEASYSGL

[2] = Solubility of the compound in FeSSIF; settings: simulated gi fluid
[3] = molecular target: T1, C-X-C chemokine receptor type 3; assay: Antagonist activity at human recombinant CXCR3 in human venous blood assessed as receptor internalization measured for 30 mins in presence of CXCL10 by flow cytometric analysis
[4] = Solubility of the compound in FaSSIF; settings: simulated gi fluid
in vitro [5] = settings: human, microsomes
[6] = Unbound fraction in human plasma by equilibrium based LC-MS/MS analysis
[7] = Lipophilicity, log D of the compound at pH 7.4; settings: buffer
[8] = Unbound fraction in rat plasma by equilibrium based LC-MS/MS analysis
in vivo [9] = settings: Balb/c, mouse, po, 10 mg/kg
[10] = Clearance in Wistar rat at 2 mg/kg, po; settings: in vivo
in vitro [11] = settings: rat, microsomes
[12] = Apparent permeability across apical to basolateral side in MDCK1 cells by LC-MS/MS analysis; settings: dog, MDCK
in vitro [13] = settings: mouse, microsomes
in vivo [14] = settings: Wistar, rat, po, 2 mg/kg
in vivo [15] = settings: Wistar, rat, po, 2 mg/kg; remark: listed apart in the source
in vivo [16] = settings: Balb/c, mouse, po, 10 mg/kg; remark: listed apart in the source
[17] = Half life in Wistar rat at 0.5 mg/kg, iv; settings: in vivo
in vivo [18] = settings: Balb/c, mouse, po, 10 mg/kg; remark: listed apart in the source
in vivo [19] = settings: Wistar, rat, po, 2 mg/kg; remark: listed apart in the source
[20] = Unbound fraction in mouse plasma by equilibrium based LC-MS/MS analysis
[21] = molecular target: Voltage-gated inwardly rectifying potassium channel KCNH2 (Homo sapiens, UniProt Q12809); assay: Inhibition of hERG by Qpatch-clamp method
Sequence of Voltage-gated inwardly rectifying potassium channel KCNH2 (Q12809 whole entry): as the sequence (Q12809 whole entry) above

[22] = Half life in Balb/c mouse at 1 mg/kg, iv; settings: in vivo
[23] = Clearance in Balb/c mouse at 10 mg/kg, po; settings: in vivo
[24] = Half life in Wistar rat at 0.2 mg/kg, iv; settings: in vivo

SMILES	inhibition at 0.05 h, 3 µM (hERG (KCNH2)) [%]	IC50 [1] [nM]	solubility [2] [µg/mL]	IC50 [3] [nM]	solubility [4] [µg/mL]	microsomal CLint at 0.25 h, 1 µM (in vitro [5]) [µL/min/mg]	fraction unbound [6]	logD [7]	Cmax (in vivo [9]) [ng/mL]	microsomal CLint at 0.25 h, 1 µM (in vitro [13]) [µL/min/mg]	Tmax (in vivo [16]) [min]	AUC (in vivo [18]) [ng·h/mL]	fraction unbound [20]	other results
C[C@@H]1CN(c2sc(C(F)(F)F)nc2-c2nc3ccccc3[nH]2)CCN1C(=O)Cn1cnc2c1CCN(C)C2	33	3.6	> 920	135	> 920	21	0.15	3	–	–	–	–	–	–
Cc1nc(C)n(CC(=O)N2CCN(c3sc(C(F)(F)F)nc3-c3nc4ccccc4[nH]3)C[C@H]2C)n1	45	3.2	> 850	237	440 (≈ 872 µM)	30	0.113	3.3	5090	21	30	10800	0.041	fraction unbound [8]: 0.074; CL/F [10]: 6 mL/min/kg; microsomal CLint at 0.25 h, 1 µM (in vitro [11]): 39 µL/min/mg; Papp A→B [12]: 12 ×10⁻⁶ cm/s; bioavailability (in vivo [14]): 0.5%; Tmax (in vivo [15]): 30 min; half-life [17]: 180 min; AUC (in vivo [19]): 2970 ng·h/mL
C[C@@H]1CN(c2sc(C(F)(F)F)nc2-c2nc3ccccc3[nH]2)CCN1C(=O)Cn1cnc2cccnc21	70	–	214 (≈ 406 µM)	–	13 (≈ 24.7 µM)	89	0.023	3.9	27900	104	–	–	0.01	IC50 [21]: 1400 nM; half-life [22]: 13.2 min; fraction unbound [8]: 0.017; microsomal CLint at 0.25 h, 1 µM (in vitro [11]): 104 µL/min/mg; CL/F [23]: 41 mL/min/kg
Cc1nc(C)n(CC(=O)N2CCN(c3sc(C(F)(F)F)nc3-c3nc4ccc(N5CCOCC5)cc4[nH]3)C[C@H]2C)n1	4	5.7	963 (≈ 1630 µM)	368	–	19	–	2	4320	18	15	4110	–	–
Cc1nn(CC(=O)N2CCN(c3sc(C(F)(F)F)nc3-c3nc4ccccc4[nH]3)C[C@H]2C)cc1CN(C)C	38	2.7	645 (≈ 1180 µM)	330	649 (≈ 1190 µM)	37	0.143	2.4	258	29	120	833	0.053	–
Cc1nc(C)n(CC(=O)N2CCN(c3sc(C(F)(F)F)nc3-c3nc4ccc(C5CCN(C)CC5)cc4[nH]3)C[C@H]2C)n1	-5	–	> 1020	–	–	27	–	3.4	30.5	–	180	54.6	–	–
Cc1nc(C)n(CC(=O)N2CCN(c3sc(C(F)(F)F)nc3-c3nc4ccc(C5CCOCC5)cc4[nH]3)C[C@H]2C)n1	18	3.3	> 1000	123	–	18	–	3.7	1980	46	18	545	–	–
Cc1nc(C)n(CC(=O)N2CCN(c3sc(C(F)(F)F)nc3-c3nc4c(F)cccc4[nH]3)C[C@H]2C)n1	45	3.1	750 (≈ 1440 µM)	321	–	24	–	3.6	7010	25	15	41500	0.014	Papp A→B [12]: 8.5 ×10⁻⁶ cm/s
C[C@@H]1CN(c2sc(C(F)(F)F)nc2-c2nc3ccccc3[nH]2)CCN1C(=O)Cc1cccc2cccnc12	78	23	–	502	–	–	–	–	–	–	–	–	–	–
C[C@@H]1CN(c2sc(C(F)(F)F)nc2-c2nc3ccc(CO)cc3[nH]2)CCN1C(=O)Cn1cnc2cccnc21	12	4.6	–	–	–	131	–	–	–	–	–	–	–	–
C[C@@H]1CN(c2sc(C(F)(F)F)nc2-c2nc3ccccc3[nH]2)CCN1C(=O)Cn1cccn1	54	13	734 (≈ 1540 µM)	191	352 (≈ 740 µM)	44	0.052	3.4	670	218	15	720	0.026	–
COc1cc2nc(-c3nc(C(F)(F)F)sc3N3CCN(C(=O)Cn4cnc5cccnc54)[C@H](C)C3)[nH]c2cc1OC	20	3.2	731 (≈ 1250 µM)	144	–	30	–	–	–	–	–	–	–	fraction unbound [8]: 0.042; CL/F [10]: 49 mL/min/kg; microsomal CLint at 0.25 h, 1 µM (in vitro [11]): 53 µL/min/mg; half-life [24]: 30 min; bioavailability (in vivo [14]): 29%; Tmax (in vivo [15]): 30 min; AUC (in vivo [19]): 196 ng·h/mL
C[C@@H]1CN(c2sc(C(F)(F)F)nc2-c2nc3cc(OCCO)ccc3[nH]2)CCN1C(=O)Cn1cnc2cccnc21	25	2.1	549 (≈ 936 µM)	99.1	–	43	–	2.4	1760	31	15	519	0.03	–
